Conditions: for mass density: Fluid (supercritical or subcritical phases), Vibrating tube method

C=C(C)C [2-methylpropene]
Conditions	Critical density [kg/m3]	mass density [kg/m3]
458.25 K, 5017 kPa	–	125.47
458.25 K, 9993 kPa	–	351.66
458.25 K, 14983 kPa	–	408.65
458.25 K, 19987 kPa	–	439.63
458.25 K, 25004 kPa	–	461.27
458.25 K, 29988 kPa	–	478.03
458.25 K, 34987 kPa	–	491.88
463.25 K, 5016 kPa	–	119.04
463.25 K, 9981 kPa	–	338.41
463.25 K, 14994 kPa	–	400.72
463.25 K, 19983 kPa	–	433.24
463.25 K, 25001 kPa	–	455.8
463.25 K, 29987 kPa	–	473.13
463.25 K, 34998 kPa	–	487.42
463.25 K, 39991 kPa	–	499.76
468.25 K, 5015 kPa	–	113.61
468.25 K, 9993 kPa	–	325.38
468.25 K, 14991 kPa	–	392.57
468.25 K, 19999 kPa	–	426.94
468.25 K, 24992 kPa	–	450.29
468.25 K, 29998 kPa	–	468.26
468.25 K, 34985 kPa	–	482.91
473.25 K, 5018 kPa	–	109.13
473.25 K, 9986 kPa	–	311.87
473.25 K, 14992 kPa	–	384.37
473.25 K, 20001 kPa	–	420.52
473.25 K, 24988 kPa	–	444.78
473.25 K, 29996 kPa	–	463.37
473.25 K, 34999 kPa	–	478.46
478.25 K, 5019 kPa	–	105.12
478.25 K, 9988 kPa	–	298.62
478.25 K, 14996 kPa	–	376.12
478.25 K, 19999 kPa	–	414.08
478.25 K, 24987 kPa	–	439.29
478.25 K, 30005 kPa	–	458.51
478.25 K, 34997 kPa	–	474
483.25 K, 5019 kPa	–	101.57
483.25 K, 9988 kPa	–	285.6
483.25 K, 14984 kPa	–	367.69
483.25 K, 19990 kPa	–	407.57
483.25 K, 24996 kPa	–	433.89
483.25 K, 29989 kPa	–	453.63
483.25 K, 35003 kPa	–	469.59
488.24 K, 4981 kPa	–	97.35
488.24 K, 20000 kPa	–	401.24
488.25 K, 9987 kPa	–	273.08
488.25 K, 14983 kPa	–	359.4
488.25 K, 24997 kPa	–	428.38
488.25 K, 30002 kPa	–	448.75
488.25 K, 35005 kPa	–	465.15
493.24 K, 4981 kPa	–	94.56
493.24 K, 9988 kPa	–	261.21
493.24 K, 14986 kPa	–	351.12
493.24 K, 19989 kPa	–	394.84
493.24 K, 24992 kPa	–	422.89
493.24 K, 30006 kPa	–	443.91
493.24 K, 35002 kPa	–	460.71
498.24 K, 5019 kPa	–	92.91
498.24 K, 19995 kPa	–	387.94
498.24 K, 30000 kPa	–	439.07
498.25 K, 9984 kPa	–	249.88
498.25 K, 14995 kPa	–	342.92
498.25 K, 24992 kPa	–	417.4
498.25 K, 34999 kPa	–	456.28
503.24 K, 4997 kPa	–	90.01
503.24 K, 9991 kPa	–	239.72
503.24 K, 14990 kPa	–	334.64
503.24 K, 19984 kPa	–	381.57
503.24 K, 24988 kPa	–	411.94
503.24 K, 30005 kPa	–	434.24
503.24 K, 34991 kPa	–	451.87
503.24 K, 39995 kPa	–	466.57
508.24 K, 5016 kPa	–	88.26
508.24 K, 9990 kPa	–	230.13
508.24 K, 14990 kPa	–	326.56
508.24 K, 19994 kPa	–	375.29
508.24 K, 24991 kPa	–	406.52
508.24 K, 30000 kPa	–	429.41
508.24 K, 34996 kPa	–	447.5
508.24 K, 39992 kPa	–	462.51
513.24 K, 5016 kPa	–	86.21
513.24 K, 9990 kPa	–	221.29
513.24 K, 14992 kPa	–	318.59
513.24 K, 19996 kPa	–	368.96
513.24 K, 24989 kPa	–	401.13
513.24 K, 30003 kPa	–	424.62
513.24 K, 35008 kPa	–	443.17
513.24 K, 39996 kPa	–	458.53
518.23 K, 5016 kPa	–	84.36
518.24 K, 9992 kPa	–	213.29
518.24 K, 14986 kPa	–	310.73
518.24 K, 19995 kPa	–	362.67
518.24 K, 24992 kPa	–	395.78
518.24 K, 29993 kPa	–	419.86
518.24 K, 34991 kPa	–	438.82
518.24 K, 39999 kPa	–	454.51
523.23 K, 5019 kPa	–	82.65
523.23 K, 9982 kPa	–	205.67
523.23 K, 14990 kPa	–	303.2
523.23 K, 19986 kPa	–	356.38
523.23 K, 24989 kPa	–	390.45
523.23 K, 29998 kPa	–	415.17
523.23 K, 39987 kPa	–	450.55
523.24 K, 34992 kPa	–	434.55
Liquid, visual observation in a variable volume cell:FP	233.97	–

Liquid
Conditions	Critical pressure [kPa]	Critical temperature [K]
–	4009.8	418.09

Source: the NIST ThermoML archive (doi:10.1016/j.fluid.2004.09.013)
